Data published in patent US8394792B2, “Heterocyclic derivatives” (C&C Research Laboratories, priority 2008, dated 2013).
Where a name gives a salt, the structure may show the parent alone. Read-outs that look alike come from different tables or passages of the source.

Key:
[1] = Test for solubility according to pH; format: physicochemical; conditions: 37° C. 2 hours; for solubility at 2 h: 37 °C, thermodynamic from solid
Procedure: 2.0 g of sodium chloride was dissolved in 7.0 mL of hydrochloric acid and water to make the total volume of 1000 mL. This solution was colorless and clear. Its pH was about 1.2.
To 250 mL of 0.2 mol/L potassium dihydrogen phosphate solution, 118 mL of 0.2 mol/L sodium hydroxide solution and water were added to make the total volume of 1000 mL. This solution was colorless and clear. Its pH was about 6.8.
For the compounds of present invention prepared in the examples, the test samples were prepared in each of the first and second solutions with 2 mg/mL concentration. This test sample solution was agitated for 10 seconds, sonicated for 1 minute and heated at 37° C. for 2 hours. The heated test sample solution was filtered to remove undissolved compounds therein. From filtered solution, 100 μl of the completely dissolved solution was sampled and 100 μl of acetonitrile was added thereto to make test sample solution. For each analysis of test sample solution, the solubility was measured by using liquid chromatography.

hURAT1 = biological target: T1, hURAT1 (Homo sapiens, UniProt Q96S37); experiment: Test for inhibiting urate reuptake activity via hURAT1 (uric acid transport assay in hURAT1-overexpressed HEK293 cell line); format: cell-based; conditions: hURAT1-overexpressed HEK293 cells, [14C]-uric acid uptake, 100 μM uric acid; read-out: IC50 (μM) hURAT, level of uric acid reuptake inhibition
T1 construct: expressed in transfected cells; host or cells: HEK293 (human kidney cell line), transient transfection with Fugene6
T1 sequence (Q96S37 1-553): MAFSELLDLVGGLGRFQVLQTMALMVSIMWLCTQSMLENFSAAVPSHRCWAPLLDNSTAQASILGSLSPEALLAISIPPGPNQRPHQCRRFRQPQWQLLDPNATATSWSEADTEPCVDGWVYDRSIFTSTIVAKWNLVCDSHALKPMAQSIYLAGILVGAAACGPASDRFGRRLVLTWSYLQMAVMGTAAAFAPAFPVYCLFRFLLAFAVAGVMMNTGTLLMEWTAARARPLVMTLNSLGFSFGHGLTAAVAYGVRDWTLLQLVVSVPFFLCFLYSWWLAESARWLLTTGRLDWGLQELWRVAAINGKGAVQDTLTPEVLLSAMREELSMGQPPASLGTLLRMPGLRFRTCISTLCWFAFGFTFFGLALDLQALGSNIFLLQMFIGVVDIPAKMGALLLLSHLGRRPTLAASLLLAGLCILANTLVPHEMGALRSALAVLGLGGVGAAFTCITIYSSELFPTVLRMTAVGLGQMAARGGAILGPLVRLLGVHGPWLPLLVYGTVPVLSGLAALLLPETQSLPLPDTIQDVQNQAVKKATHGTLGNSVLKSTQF
Procedure: Test for Inhibiting Urate Reuptake Activity Via hURAT1
[hURAT1 Overexpression by Transient Transfection in Human Kidney Cell Line]
A human kidney cell line, HEK293 was incubated by using OptiMEM medium in 100 mm dish at (3*10^6 cells) for 24 hours. In order for the expression of hURAT1, a transfection mixture solution (Fugene6 18 μl:hURAT1 DNA 6 μg=3:1, in 600 μl OptiMEM medium/dish) was prepared and kept for 15 minutes at room temperature. To each dish, 600 μl of the mixture solution was injected and then incubated in 37[…] cell incubator for 24 hours. The hURAT1-overexpressed HEK293 cell line was trypsinized and cells were harvested. Cells were resuspended in medium and seeded at 6*10^5 cells/well and incubated for 24 hours in 24-well plate which was surface-coated with Poly-D-Lysine.
[Uric Acid Transport Assay in hURAT1-Overexpressed HEK293 Cell Line]
For each concentration, the stock sample solution was diluted in PBS (1 μl in 800 μl of PBS) as 1.25 fold concentrated working sample solution to obtain final concentrations of 0.01, 0.1, 1 and 10 μM. The hURAT1-overexpressed cell line was washed with 1 ml of PBS. After washing, PBS was discarded and the sample solution was diluted by 1.25 fold with PBS. Preincubation of cells with 200 μl/well of sample solution made above was conducted for 30 minutes in 37[…] cell incubator. After the incubation, each well was treated with 50 μl of PBS containing 500 μM [^14C]-uric acid (final 100 μM of uric acid/well). Cells were incubated for 2 minutes. The cells were washed twice with 1 ml of PBS.
To measure the uric acid uptake, each well was treated with 150 μl of M-per buffer (PIERCE) and kept in 37° C. cell incubator for 30 minutes to make cell lysates. 150 μl of cell lysates was transferred into test tube and 4 ml of scintillation cocktail was added. CPM value of [^14C]-uric acid absorbed into cells was detected using liquid scintillation counter. IC50 for the inhibition of uric acid uptake by each test sample was analyzed by computational numerical processing.

CYP2C9 = CYP2C9 (Homo sapiens, UniProt P11712); experiment: biochemical
CYP2C9, sequence (P11712 whole entry): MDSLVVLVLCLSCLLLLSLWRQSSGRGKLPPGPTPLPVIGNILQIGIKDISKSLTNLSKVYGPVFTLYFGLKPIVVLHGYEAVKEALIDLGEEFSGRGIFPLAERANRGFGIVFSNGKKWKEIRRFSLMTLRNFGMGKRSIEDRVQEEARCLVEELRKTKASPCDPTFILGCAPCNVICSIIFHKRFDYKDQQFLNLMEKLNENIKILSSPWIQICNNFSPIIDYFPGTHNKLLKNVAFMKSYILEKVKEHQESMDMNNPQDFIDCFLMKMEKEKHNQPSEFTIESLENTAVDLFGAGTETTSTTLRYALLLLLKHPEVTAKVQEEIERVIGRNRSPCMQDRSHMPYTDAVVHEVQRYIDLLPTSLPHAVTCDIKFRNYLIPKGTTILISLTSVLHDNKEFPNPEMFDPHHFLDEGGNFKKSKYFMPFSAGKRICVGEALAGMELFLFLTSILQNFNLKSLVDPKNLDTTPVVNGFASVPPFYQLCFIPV

[2] = pH 1.2, simulated gastric fluid, first solution pH about 1.2, 2 mg/mL, read-out: Solubility (μg/mL) pH 1.2

| Structure (SMILES) | solubility at 2 h [1, 2] | Solubility (μg/mL) pH 6.8 ([1]; second solution pH about 6.8, 2 mg/mL) | IC50 (hURAT1) | IC50 (CYP2C9) | solubility at 2 h ([1]; pH 6.8, aqueous buffer, second solution pH about 6.8, 2 mg/mL, read-out: Solubility (μg/mL) pH 6.8) |
| --- | --- | --- | --- | --- | --- |
| O=C(c1cc(Cl)c(O)c(Cl)c1)N1CCOc2cnccc21 [Compound 15, (3,5-dichloro-4-hydroxy-phenyl)-(2,3-dihydro-pyrido[3,4-b][1,4]oxazin-1-yl)-methanone bromic acid salt] | 1510 µg/mL | 453 μg/mL | 0.458 µM | 4.5 µM | – |
| COc1c(Br)cc(C(=O)N2CCOc3ncc(-c4cccc([N+](=O)[O-])c4)cc32)cc1Br [Compound 49, (3,5-dibromo-4-methoxy-phenyl)-[7-(3-nitro-phenyl)-2,3-dihydro-pyrido[2,3-b][1,4]oxazin-1-yl]-methanone] | – | – | 0.311 µM | > 20 µM | – |
| O=C(c1ccc(O)c(Br)c1)N1CCOc2cnccc21 [Compound 16, (3-bromo-4-hydroxy-phenyl)-(2,3-dihydro-pyrido[3,4-b][1,4]oxazin-1-yl)-methanone bromic acid salt] | – | – | 0.93 µM | 3.5 µM | – |
| COc1cncc(-c2cnc3c(c2)N(C(=O)c2cc(Br)c(O)c(Br)c2)CCO3)c1 [Compound 68, (3,5-dibromo-4-hydroxy-phenyl)-[7-(5-methoxy-pyridin-3-yl)-2,3-dihydro-pyrido[2,3-b][1,4]oxazin-1-yl]-methanone] | – | – | 0.0232 µM | 1.39 µM | – |
| COc1c(Br)cc(C(=O)N2CCOc3ncc(C(F)(F)F)cc32)cc1Br [Compound 22-1, (3,5-dibromo-4-methoxy-phenyl)-(7-trifluoromethyl-2,3-dihydro-pyrido[2,3-b][1,4]oxazin-1-yl)-methanone] | – | – | 0.0888 µM | 13.4 µM | – |
| O=C(c1cc(Br)c(O)c(Br)c1)N1CCOc2ncc(-c3cccc([N+](=O)[O-])c3)cc21 [Compound 50, (3,5-dibromo-4-hydroxy-phenyl)-[7-(3-nitro-phenyl)-2,3-dihydro-pyrido[2,3-b][1,4]oxazin-1-yl]-methanone] | – | – | 0.0044 µM | 1.26 µM | – |
| O=C(c1cc(Br)c(O)c(Br)c1)N1CCOc2ncc(-c3ccoc3)cc21 [Compound 53, (3,5-dibromo-4-hydroxy-phenyl)-(7-furan-3-yl-2,3-dihydro-pyrido[2,3-b][1,4]oxazin-1-yl]-methanone] | – | – | 0.0562 µM | 10.3 µM | – |
| O=C(c1cc(Br)c(O)c(Br)c1)N1CCOc2ncc(-c3ccc(OC(F)(F)F)cc3)cc21 [Compound 66, (3,5-dibromo-4-hydroxy-phenyl)-[7-(4-trifluoromethoxy-phenyl)-2,3-dihydro-pyrido[2,3-b][1,4]oxazin-1-yl]-methanone] | – | – | 0.0358 µM | 1.34 µM | – |
| O=C(c1cc(Br)c(O)c(Br)c1)N1CCOc2cnccc21 [Compound 6, (3,5-dibromo-4-hydroxy-phenyl)-(2,3-dihydro-pyrido[3,4-b][1,4]oxazin-1-yl)-methanone] | – | – | 0.0565 µM | 3.05 µM | – |
| O=C(c1cc(Br)c(O)c(Br)c1)N1CCOc2ncc(-c3cncc4ccccc34)cc21 [Compound 61, (3,5-dibromo-4-hydroxy-phenyl)-(7-isoquinolin-4-yl-2,3-dihydro-pyrido[2,3-b][1,4]oxazin-1-yl)-methanone] | – | – | 0.002 µM | 1.23 µM | – |
| COc1c(Br)cc(C(=O)N2CCOc3nc(C)ccc32)cc1Br [Compound 58, (3,5-dibromo-4-methoxy-phenyl)-(6-methyl-2,3-dihydro-pyrido[2,3-b][1,4]oxazin-1-yl)-methanone] | – | – | 0.742 µM | > 20 µM | – |
| COc1c(Br)cc(C(=O)N2CCOc3ncc(-c4cccc(N(C)C)c4)cc32)cc1Br [Compound 48, (3,5-dibromo-4-methoxy-phenyl)-[7-(3-dimethylamino-phenyl)-2,3-dihydro-pyrido[2,3-b][1,4]oxazin-1-yl]-methanone] | – | – | 0.0933 µM | 1.68 µM | – |
| O=C(c1cc(Br)c(O)c(Br)c1)N1CCOc2ncc(-c3ccc(C(F)(F)F)cc3)cc21 [Compound 45, (3,5-dibromo-4-hydroxy-phenyl)-[7-(4-trifluoromethyl-phenyl)-2,3-dihydro-pyrido[2,3-b][1,4]oxazin-1-yl]-methanone] | – | – | 0.0197 µM | 1.18 µM | – |
| O=C(c1ccc(O)c(C(F)(F)F)c1)N1CCOc2cnccc21 [Compound 19, (2,3-dihydro-pyrido[3,4-b][1,4]oxazin-1-yl)-(4-hydroxy-3-trifluoromethyl-phenyl)-methanone] | – | – | 0.269 µM | 6.8 µM | – |
| O=C(c1cc(Br)c(O)c(Br)c1)N1CCOc2c1cnc1ccccc21 [Compound 55, (3,5-dibromo-4-hydroxy-phenyl)-(2,3-dihydro-4-oxa-1,9-diaza-phenanthren-1-yl)-methanone] | – | – | 0.0488 µM | 8.87 µM | – |
| Br.O=C(c1cc(Cl)c(O)c([N+](=O)[O-])c1)N1CCOc2cnccc21 [Compound 17, (3-chloro-4-hydroxy-5-nitro-phenyl)-(2,3-dihydro-pyrido[3,4-b][1,4]oxazin-1-yl)-methanone bromic acid salt] | 1610 µg/mL | – | 1 µM | – | 1890 µg/mL |
| O=C(c1cc(Br)c(O)c(Br)c1)N1CCOc2ncc(-c3cccnc3)cc21 [Compound 52, (3,5-dibromo-4-hydroxy-phenyl)-(7-pyridin-3-yl-2,3-dihydro-pyrido[2,3-b][1,4]oxazin-1-yl]-methanone] | – | – | 0.0103 µM | > 20 µM | – |
| O=C(c1cc(Br)c(O)c(Br)c1)N1CCOc2ncc(-c3ccccc3)cc21 [Compound 20, (3,5-dibromo-4-hydroxy-phenyl)-(7-phenyl-2,3-dihydro-pyrido[2,3-b][1,4]oxazin-1-yl)-methanone] | – | – | 0.034 µM | 5.2 µM | – |
| N#Cc1ccc(-c2cnc3c(c2)N(C(=O)c2cc(Br)c(O)c(Br)c2)CCO3)cc1 [Compound 65, 4-[1-(3,5-dibromo-4-hydroxy-benzoyl)-2,3-dihydro-1H-pyrido[2,3-b][1,4]oxazin-7-yl]-benzonitrile] | – | – | 0.003 µM | 12.4 µM | – |
| O=C(c1cc(Br)c(O)c(Br)c1)N1CCOc2ncc(C3CC3)cc21 [Compound 9, (3,5-dibromo-4-hydroxy-phenyl)-(7-cyclopropyl-2,3-dihydro-pyrido[2,3-b][1,4]oxazin-1-yl)-methanone] | – | – | 0.02 µM | > 20 µM | – |
| O=C(c1cc(Br)c(O)c(Br)c1)N1CCOc2ncc(-c3cccc(C(F)(F)F)c3)cc21 [Compound 63, (3,5-dibromo-4-hydroxy-phenyl)-[7-(3-trifluoromethyl-phenyl)-2,3-dihydro-pyrido[2,3-b][1,4]oxazin-1-yl]-methanone] | – | – | 0.0123 µM | 1.11 µM | – |
| COc1c(Br)cc(C(=O)N2CCOc3ncc(C)cc32)cc1Br [Compound 27-1, (3,5-dibromo-4-methoxy-phenyl)-(7-methyl-2,3-dihydro-pyrido[2,3-b][1,4]oxazin-1-yl)-methanone] | – | – | 0.036 µM | > 20 µM | – |
| O=C(c1cc(Br)c(O)c(Br)c1)N1CCOc2ncc(-c3ccccc3C(F)(F)F)cc21 [Compound 46, (3,5-dibromo-4-hydroxy-phenyl)-[7-(2-trifluoromethyl-phenyl)-2,3-dihydro-pyrido[2,3-b][1,4]oxazin-1-yl]-methanone] | – | – | 0.0047 µM | 1.09 µM | – |
| O=C(c1ccc(O)c(Br)c1)N1CCOc2ccncc21 [Compound 11, (3-bromo-4-hydroxy-phenyl)-(2,3-dihydro-pyrido[4,3-b][1,4]oxazin-4-yl)-methanone bromic acid salt] | – | – | 0.175 µM | > 60 µM | – |
